{
  "source": "patent US20180344641A1",
  "about": "“MESOPOROUS SILICA NANOPARTICLES AND SUPPORTED LIPID BI-LAYER NANOPARTICLES FOR BIOMEDICAL APPLICATIONS” (priority 2015, published 2018)",
  "key": {"REH cells": {"test_system": "REH cells", "assay": "Cell viability, CellTiter-Glo 2.0 Assay", "format": "cell-based, human", "settings": "free GEM 0 to 30 uM 1 hour, viability at 24 hours", "method": "(§1) Whole human blood was acquired from healthy donors with informed consent and stabilized in K2EDTA tubes (BD Biosciences). hRBCs were purified following reported procedure (Liao et al., 2011), then incubated with either bare mMSNs or protocells (25, 50, 100, 200, and 400 μg/mL) at 37° C. After 3 hours of exposure, samples were centrifuged at 300 g for 3 minutes, then 100 μL of supernatant from each sample was transferred to a 96-well plate. Hemoglobin absorbance was measured using a BioTek microplate reader (Winooski, Vt.) at 541 nm. The percent hemolysis of each sample was quantified using a reported equation (Liao et al., 2011). In addition, we examined the biocompatibility of anti-EGFR targeted protocells in vitro. We incubated about 1.5×10^5 cells/mL of REH and REH+EGFR cell lines with either 12.5, 25, 50, 100, and 200 μg/mL of anti-EGFR targeted protocells in complete medium for 1 hour at 37° C. Cells were washed twice in complete media and transferred to a 96-well plate for 24 hours at 37° C. Cell viability was assessed by CellTiter-Glo® 2.0 Assay as measured by BioTek microplate reader. The cell viability was calculated as a percentage of non-protocell treated sample.\n(§2) […] Cell viability was assessed by CellTiter-Glo® 2.0 Assay as measured by BioTek microplate reader. The cell viability was calculated as a percentage of non-protocell treated sample."}, "REH+EGFR cells": {"test_system": "REH+EGFR cells", "assay": "Cell viability, CellTiter-Glo 2.0 Assay", "format": "cell-based, human", "settings": "free GEM 0 to 30 uM 1 hour, viability at 24 hours", "method": "as §1, §2"}, "[1]": {"settings": "Federico et al., 2012; cited from earlier work"}},
  "data": [
    {"molecule": "Nc1ccn([C@@H]2O[C@H](CO)[C@@H](O)C2(F)F)c(=O)n1", "note": "[GEM, Gemcitabine]", "values": [
      {"measurement": "viability of REH cells", "setting": "REH cells", "result": "Loss in cell viability of REH and REH+EGFR cells"},
      {"measurement": "viability of REH+EGFR cells", "setting": "REH+EGFR cells", "result": "Loss in cell viability of REH and REH+EGFR cells"},
      {"measurement": "plasma half-life", "setting": "[1]", "result": "8 to 17", "unit": "min"}
    ]}
  ]
}
